Key:
[1] = target: T1, recombinant human CRTH2 receptor (Homo sapiens, UniProt Q9Y5Y4); experiment: GTPγS binding assay; format: biochemical; details: +HSA; CHO cell membranes, 80 nM PGD2; read-out: hDP2 GTPγS μM (+HSA)
T1 construct: expressed in transfected cells
T1 sequence (Q9Y5Y4 1-395): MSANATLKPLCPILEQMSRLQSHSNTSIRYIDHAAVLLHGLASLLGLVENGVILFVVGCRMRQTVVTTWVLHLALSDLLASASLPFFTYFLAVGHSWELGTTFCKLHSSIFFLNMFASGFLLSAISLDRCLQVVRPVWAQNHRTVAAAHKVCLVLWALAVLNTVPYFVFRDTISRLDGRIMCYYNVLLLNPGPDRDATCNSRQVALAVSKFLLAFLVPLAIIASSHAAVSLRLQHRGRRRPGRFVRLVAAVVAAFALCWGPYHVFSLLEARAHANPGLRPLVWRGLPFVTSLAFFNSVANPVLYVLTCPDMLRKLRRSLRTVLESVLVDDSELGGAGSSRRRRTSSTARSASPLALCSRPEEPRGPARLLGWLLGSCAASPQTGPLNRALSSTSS
Method: The ability of a compound to inhibit binding of GTP to DP2 is assessed via a membrane GTPγS assay. CHO cells stably expressing the recombinant human CRTH2 receptor are resuspended in 10 mM Hepes, 7.4 containing 1 mM DTT, lysed and centrifuged at 75,000×g to pellet the membranes. The membranes are resuspended in 10 mM Hepes, 7.4 containing 1 mM DTT and 10% glycerol. […] The reactions are terminated by rapid filtration through Whatman GF/B glass fibre filter plates. The filter plates are washed 3 times with 1 ml cold Assay Buffer and dried. Scintillant is then added to the plates and the radioactivity retained on the filters is determined on a Packard TopCount (Perkin Elmer). Specific binding is determined as total radioactive binding minus non-specific binding in the absence of the ligand (80 nM PGD2). IC50s were determined using Graphpad prism analysis of drug titration curves.

human DP2 receptor = target: T2, human DP2 receptor (Homo sapiens, UniProt Q9Y5Y4); experiment: DP2/CRTH2 radioligand binding assay using [3H]PGD2; details: [3H]PGD2 binding, membranes of HEK293 cells expressing recombinant human DP2; read-out: hDP2
T2 construct: expressed in transfected cells
T2 sequence (Q9Y5Y4 1-395): T1 sequence (Q9Y5Y4 1-395)
Method: The ability of a compound to bind to the human DP2 receptor is assessed via a radioligand binding assay using [^3H]PGD2. HEK293 cells stably expressing recombinant human DP2 are resuspended in 10 mM Hepes, 7.4 containing 1 mM DTT, lysed and centrifuged at 75,000×g to pellet the membranes. The membranes are resuspended in 10 mM Hepes, 7.4 containing 1 mM DTT and 10% glycerol to approximately 5 mg protein/ml. Membranes (2-10 μg protein/well) are incubated in 96-well plates with 1 nM [^3H]PGD2 and test compound in Assay Buffer (50 mM Hepes, 10 mM MnCl2, 1 mM EDTA, plus or minus 0.2% human serum albumin, pH 7.4) for 60 minutes at room temperature. The reactions are terminated by rapid filtration through Whatman GF/C glass fibre filter plates. The filter plates were pre-soaked in 0.33% polythylenimine for 30 minutes at room temperature then washed in Wash Buffer (50 mM Hepes, 0.5 M NaCl pH 7.4) prior to harvesting. After harvesting, the filter plates are washed 3 times with 1 ml cold Wash Buffer then dried. Scintillant is then added to the plates and the radioactivity retained on the filters is determined on a Packard TopCount (Perkin Elmer). Specific binding is determined as total radioactive binding minus non-specific binding in the presence of 10 μM PGD2. IC50s were determined using GraphPad prism analysis of drug titration curves.

human DP1 receptor = target: T3, human DP1 receptor (Homo sapiens, UniProt Q13258); experiment: DP1 radioligand membrane binding assay using [3H]BWA868C; details: [3H]BWA868C binding, human platelet membranes; read-out: hDP1
T3 construct: tissue Biological Specialty Corporation; host or cells: human platelets, membranes
T3 sequence (Q13258 1-359): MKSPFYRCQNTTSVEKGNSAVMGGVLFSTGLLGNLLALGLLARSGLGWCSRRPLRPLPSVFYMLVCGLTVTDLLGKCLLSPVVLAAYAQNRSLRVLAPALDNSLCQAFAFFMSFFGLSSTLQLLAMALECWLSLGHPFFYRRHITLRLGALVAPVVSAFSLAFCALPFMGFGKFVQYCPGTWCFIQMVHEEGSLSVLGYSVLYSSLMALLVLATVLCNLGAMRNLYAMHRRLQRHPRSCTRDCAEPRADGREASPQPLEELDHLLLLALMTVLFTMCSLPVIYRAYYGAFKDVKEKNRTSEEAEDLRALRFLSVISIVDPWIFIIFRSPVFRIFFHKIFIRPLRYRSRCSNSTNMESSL
Method: The ability of a compound to bind to the human DP1 receptor was evaluated via a radioligand membrane binding assay using the DP1 selective synthetic ligand [^3H]BWA868C. Packed human platelets (Biological Specialty Corporation), were resuspended in 6 volumes of Hepes/HBSS buffer (10 mM Hepes, 1 mM DTT in Hanks Balanced Salt Solution (HBSS)), lysed and centrifuged at 75,000×g to pellet the membranes. Membranes were resuspended in Hepes/HBSS buffer to approximately 12 mg protein/ml. Membranes (20 μg protein/well) are incubated in 96-well plates with 2 nM [^3H]BWA868C and test compound in Assay Buffer (50 mM Hepes, 10 mM MnCl2, 1 mM EDTA, plus or minus 0.2% human serum albumin, pH 7.4) for 60 minutes at room temperature. The reactions are terminated by rapid filtration through Whatman GF/C glass fibre filter plates. The filter plates were pre-soaked in […] polethylenimine for 30 minutes at room temperature then washed in Wash Buffer (50 mM Hepes, 0.5 M NaCl pH 7.4) prior to harvesting. After harvesting, the filter plates are washed 3 times with 1 ml cold Wash Buffer then dried. Scintillant is then added to the plates and the radioactivity retained on the filters is determined on a Packard TopCount (Perkin Elmer). Specific binding is determined as total radioactive binding minus non-specific binding in the presence of 10 μM BWA868C. IC50s were determined using GraphPad prism analysis of drug titration curves.

IC50 [1]	IC50 (human DP2 receptor)	IC50 (human DP1 receptor)	SMILES
< 0.3 µM	< 300 nM		CCN(Cc1cc(C(F)(F)F)ccc1-c1cc(CC(=O)O)ccc1OC)C(=O)C(C)C [Compound 1-246, {2′-[(Ethyl-isobutyryl-amino)-methyl]-6-methoxy-4′-trifluoromethyl-biphenyl-3-yl}-acetic acid]
< 0.3 µM	< 300 nM	> 1000 nM	CCN(Cc1cc(C(F)(F)F)ccc1-c1cc(CC(=O)O)ccc1OC)C(=O)COCc1ccccc1 [Compound 1-92, (2′-{[(2-Benzyloxy-acetyl)-ethyl-amino]-methyl}-6-methoxy-4′-trifluoromethyl-biphenyl-3-yl)-acetic acid]
< 0.3 µM	< 300 nM	> 1000 nM	CCN(Cc1cc(C(F)(F)F)ccc1-c1cc(CC(=O)O)ccc1OC)C(=O)OCc1cccc(Cl)c1 [Compound 1-43, (2′-{[(3-Chloro-benzyloxycarbonyl)-ethyl-amino]-methyl}-6-methoxy-4′-trifluoromethyl-biphenyl-3-yl)-acetic acid]
< 0.3 µM	< 300 nM	> 1000 nM	CC(=O)N(Cc1cc(C(F)(F)F)ccc1-c1cc(CC(=O)O)ccc1F)CC(F)(F)F [Compound 1-11, (2′-{[Acetyl-(2,2,2-trifluoro-ethyl)-amino]-methyl}-6-fluoro-4′-trifluoromethyl-biphenyl-3-yl)-acetic acid]
< 0.3 µM	< 300 nM	> 1000 nM	CCN(Cc1cc(F)ccc1-c1cc(CC(=O)O)ccc1OC)C(=O)C1CC1 [Compound 1-186, {2′-[(Cyclopropanecarbonyl-ethyl-amino)-methyl]-4′-fluoro-6-methoxy-biphenyl-3-yl}-acetic acid]
< 0.3 µM	< 300 nM	> 1000 nM	CCN(Cc1cc(C(F)(F)F)ccc1-c1cc(CC(=O)O)ccc1F)C(C)=O [Compound 1-10, {2′-[(Acetyl-ethyl-amino)-methyl]-6-fluoro-4′-trifluoromethyl-biphenyl-3-yl}-acetic acid]
< 0.3 µM	< 300 nM	> 1000 nM	COc1ccc(CC(=O)O)cc1-c1ccc(C(F)(F)F)cc1CN(CC(F)(F)F)C(C)=O [Compound 1-4, (2′-{[Acetyl-(2,2,2-trifluoro-ethyl)-amino]-methyl}-6-methoxy-4′-trifluoromethyl-biphenyl-3-yl)-acetic acid]
	< 300 nM	> 1000 nM	CCN(Cc1cc(C(F)(F)F)ccc1-c1cc(CC(=O)O)ccc1OC)C(=O)NCc1cc(Cl)cc(Cl)c1 [Compound 1-165, {2′-[3-(3,5-Dichloro-benzyl)-1-ethyl-ureidomethyl]-6-methoxy-4′-trifluoromethyl-biphenyl-3-yl}-acetic acid]
	> 1000 nM	> 1000 nM	O=C(O)Cc1ccc(F)c(-c2ccc(C(F)(F)F)cc2CN(CC(F)(F)F)C(=O)OCc2ccccc2)c1 [Compound 1-49, (2′-{[Benzyloxycarbonyl-(2,2,2-trifluoro-ethyl)-amino]-methyl)-6-fluoro-4′-trifluoromethyl-biphenyl-3-yl)-acetic acid]
	< 300 nM	> 1000 nM	CCN(Cc1cc(F)ccc1-c1cc(CC(=O)O)ccc1OC)C(=O)NCc1ccc(Cl)cc1 [Compound 1-185, {2′-[3-(4-Chloro-benzyl)-1-ethyl-ureidomethyl]-4′-fluoro-6-methoxy-biphenyl-3-yl}-acetic acid]
	> 1000 nM	> 1000 nM	COc1ccc(CC(=O)O)cc1-c1ccc(C(=O)O)cc1CN(CC(F)(F)F)C(C)=O [Compound 1-37, 2-{[Acetyl-(2,2,2-trifluoro-ethyl)-amino]-methyl}-5′-carboxymethyl-2′-methoxy-biphenyl-4-carboxylic acid]
	< 300 nM	> 1000 nM	CCN(Cc1cc(C(F)(F)F)ccc1-c1cc(CC(=O)O)ccc1OC)C(=O)N[C@@H](C)c1ccc(Cl)cc1 [Compound 1-180, (2′-{3-[(S)-1-(4-Chloro-phenyl)-ethyl]-1-ethyl-ureidomethyl}-6-methoxy-4′-trifluoromethyl-biphenyl-3-yl)-acetic acid]
	< 300 nM	> 1000 nM	CCN(Cc1cc(C(F)(F)F)ccc1-c1cc(CC(=O)O)ccc1OC)C(=O)NCc1ccc(Cl)c(Cl)c1 [Compound 1-152, {2′-[3-(3,4-Dichloro-benzyl)-1-ethyl-ureidomethyl]-6-methoxy-4′-trifluoromethyl-biphenyl-3-yl}-acetic acid]
	< 300 nM	> 1000 nM	CCN(Cc1cc(F)ccc1-c1cc(CC(=O)O)ccc1OC)C(=O)NCc1ccccc1 [Compound 1-187, [2′-(3-Benzyl-1-ethyl-ureidomethyl)-4′-fluoro-6-methoxy-biphenyl-3-yl]-acetic acid]
	< 300 nM	> 1000 nM	CCN(Cc1cc(F)ccc1-c1cc(CC(=O)O)ccc1OC)C(C)=O [Compound 1-184, {2′-[(Acetyl-ethyl-amino)-methyl]-4′-fluoro-6-methoxy-biphenyl-3-yl}-acetic acid]
< 0.3 µM	< 300 nM		CCN(Cc1cc(C(F)(F)F)ccc1-c1cc(CC(=O)O)ccc1O)C(=O)NCc1ccccc1 [Compound 1-220, [2′-(3-Benzyl-1-ethyl-ureidomethyl)-6-hydroxy-4′-trifluoromethyl-biphenyl-3-yl]-acetic acid]
	< 300 nM	> 1000 nM	CCN(Cc1cc(NS(C)(=O)=O)ccc1-c1cc(CC(=O)O)ccc1OC)C(=O)OCc1ccccc1 [Compound 1-155, {2′-[(Benzyloxycarbonyl-ethyl-amino)-methyl]-4′-methanesulfonylamino-6-methoxy-biphenyl-3-yl}-acetic acid]
	< 300 nM	> 1000 nM	CCN(Cc1cc(C(F)(F)F)ccc1-c1cc(CC(=O)O)ccc1OC)C(=O)N[C@H](C)c1ccc(Cl)cc1 [Compound 1-179, (2′-{3-[(R)-1-(4-Chloro-phenyl)-ethyl]-1-ethyl-ureidomethyl}-6-methoxy-4′-trifluoromethyl-biphenyl-3-yl)-acetic acid]
	< 300 nM	> 1000 nM	CCN(Cc1cc(NC(C)=O)ccc1-c1cc(CC(=O)O)ccc1OC)C(=O)OCc1ccccc1 [Compound 1-153, {4′-Acetylamino-2′-[(benzyloxycarbonyl-ethyl-amino)-methyl]-6-methoxy-biphenyl-3-yl}-acetic acid]

Source: US20110098352A1, “N,N-DISUBSTITUTED AMINOALKYLBIPHENYL ANTAGONISTS OF PROSTAGLANDIN D2 RECEPTORS” (AMIRA PHARMACEUTICALS, INC., priority 2008, published 2011)
